Experimental findings from US20240280561A1, “COMPOSITIONS AND METHODS FOR TREATING AND/OR IDENTIFYING AN AGENT FOR TREATING INTESTINAL CANCERS” (Dana-Farber Cancer Institute, Inc., priority 2022, published 2024) are described below.

Test [1] has as its system SOX9 expression in HT-115 cells. As to the kind of experiment: SOX9 protein expression in CRC cells treated with WNT and TGF-β pathway agents (immunoblot). Conditions: CRC cells (HT-115). The test is classed as cell-based, human. From the text:
AXIN2, SOX9 and […] (loading control) protein expression in HT-115 (Apc Mutant) cells treated with DMSO, rWNT3A or indicated concentrations of WNT-inhibitor ICG-001 by immunoblot (middle panel). SOX9 and β-actin (loading control) protein expression in HT-115 cells expressing GFP or dominant-negative (dn) TCF4 (right panel); S.E.=short exposure, L.E.=long exposure. […] Protein expression of SOX9 and β-actin (loading control) in HT-115 cells treated with indicated concentration of rTGF-β or TGF-β inhibitor.
Immunoblot analysis was performed as previously described (Wong et al. (2018) Nature medicine 24: 968-977). Briefly, cells were lysed in RIPA buffer supplemented with a protease inhibitor cocktail (Roche). Whole cell extracts were resolved by SDS-PAGE, transferred to PVDF membranes, and probed with indicated primary antibodies. Bound antibodies were detected with horseradish peroxidase (HRP)-conjugated secondary antibodies and chemiluminescent HRP substrate.
The following agents were used: recombinant WNT3A as a Wnt activator and ICG-001 as a Wnt pathway inhibitor, all of which were employed at indicated concentrations and durations.
To examine whether SOX9 is regulated by stem cell and differentiation cues, the impact of the WNT and BMP/TGF-β signaling pathways on SOX9 expression, respectively, was evaluated. […]
(In general: A western blot detects proteins with antibodies after separation by electrophoresis.)

Test [2] concerns PROM1 intronic enhancer reporter in HEK293T cells. As to the kind of experiment: PROM1 enhancer GFP reporter assay. It counts as cell-based. As to conditions: GFP reporter transiently transfected into HEK293T cells. An excerpt:
A 537-bp region in intron 1 of PROM1 (hg19, ch4:[…], negative strand) was identified as a putative SOX9-regulated enhancer based on V5-SOX9 and H3K27Ac CHIP data. PCR-amplified products or gene blocks (gBlocks, IDT) consisting of the putative PROM1 enhancer, a minimal promoter, eGFP, and PGK-hygromycin resistance cassette was cloned into the lentiviral LV 1-5 backbone vector using Gibson modular assembly platform (Akama-Garren et al. (2016) Sci Rep 6: 16836). Briefly, PROM1 enhancer was generated as a gBlock by adding the following primer sequencing to the 5′ and 3′ end of the 537-bp region, respectively: 5′→3′ Forward (site 1), […] and 5′→3′ Reverse, […] (site 2); the minimal promoter was PCR amplified from the 7TFP WT CDH1 reporter plasmid using the following primer sequences: 5′→3′ Forward (includes site 2), […] and 5′→3′ Reverse, AGGCCTCGGGATTcctagg[…] (includes site 3); eGFP was generated by adding the following primer sequences to the 5′ and 3′ end, respectively: 5′→3′ Forward (site 3), AAACCGCTGTTcctaggAATCCCGAGGCCT and 5′→3′ Reverse, GACCCGACATTagcgctACAGCTTAAGCGG (site 4); and PGK-hygro was PCR amplified from plenti-PGK-hygro-gateway destination vector using the following primers: 5′→3′ Forward (includes site 4), GACCCGACATTagcgct[…] […]
To investigate the precise mechanism of PROM1 activation, V5-SOX9 and H3K27Ac CHIP-seq data were analyzed. […]
A general note: In a reporter assay the amount or activity of a reporter protein is the signal.

In the case of `O=C1[C@H](Cc2ccc(O)cc2)N2C(=O)CCN(C(=O)NCc3ccccc3)[C@H]2CN1Cc1cccc2ccccc12` [ICG-001], the SOX9 expression entry in test [1] is given as “reduced SOX9 expression”.

B1: recombinant WNT3A: recombinant WNT3A used as a Wnt activator (protein, UniProt P56704 19-352, looked up)
Protein Wnt-3a: SYPIWWSLAVGPQYSSLGSQPILCASIPGLVPKQLRFCRNYVEIMPSVAEGIKIGIQECQHQFRGRRWNCTTVHDSLAIFGPVLDKATRESAFVHAIASAGVAFAVTRSCAEGTAAICGCSSRHQGSPGKGWKWGGCSEDIEFGGMVSREFADARENRPDARSAMNRHNNEAGRQAIASHMHLKCKCHGLSGSCEVKTCWWSQPDFRAIGDFLKDKYDSASEMVVEKHRESRGWVETLRPRYTYFKVPTERDLVYYEASPNFCEPNPETGSFGTRDRTCNVSSHGIDGCDLLCCGRGHNARAERRREKCRCVFHWCCYVSCQECTRVYDVHTCK
As to B1, in test [2], the “PROM1 enhancer reporter activity, stimulation” value stood at 3 fold.
